Assay results from the supplement of paper PMC13380429.

Legend:
Conditions in all cases: 72 h
[1] = test system: Caco-2; experiment: cell viability relative to DMSO; higher = less toxic
[2] = test system: Calu-3; experiment: as above
[3] = test system: HepG2; experiment: as above
[4] = test system: U2OS; experiment: as above
[5] = test system: Vero E6; experiment: as above
[6] = test system: Caco-2; experiment: relative viability EC50 (midpoint between 100% and the lowest measured viability); higher = less toxic
[7] = test system: Calu-3; experiment: as above
[8] = test system: HepG2; experiment: as above
[9] = test system: U2OS; experiment: as above
[10] = test system: Vero E6; experiment: as above
[11] = test system: Caco-2; experiment: drug sensitivity score (DSS) for viability; higher = more toxic; extreme values may be limits of the assay
[12] = test system: Calu-3; experiment: as above
[13] = test system: HepG2; experiment: as above
[14] = test system: U2OS; experiment: as above
[15] = test system: Vero E6; experiment: as above

Row | Structure (SMILES) | cell viability ([1]; 1 nM) | cell viability ([1]; 10 nM) | cell viability ([1]; 100 nM) | cell viability ([1]; 1000 nM) | cell viability ([1]; 10000 nM) | cell viability ([2]; 1 nM) | cell viability ([2]; 10 nM) | cell viability ([2]; 100 nM) | cell viability ([2]; 1000 nM) | cell viability ([2]; 10000 nM) | cell viability ([3]; 1 nM) | cell viability ([3]; 10 nM) | cell viability ([3]; 100 nM) | cell viability ([3]; 1000 nM) | cell viability ([3]; 10000 nM) | cell viability ([4]; 1 nM) | cell viability ([4]; 10 nM) | cell viability ([4]; 100 nM) | cell viability ([4]; 1000 nM) | cell viability ([4]; 10000 nM) | cell viability ([5]; 1 nM) | cell viability ([5]; 10 nM) | cell viability ([5]; 100 nM) | cell viability ([5]; 1000 nM) | cell viability ([5]; 10000 nM) | relative viability EC50 [6] | relative viability EC50 [7] | relative viability EC50 [8] | relative viability EC50 [9] | relative viability EC50 [10] | drug sensitivity score [11] | drug sensitivity score [12] | drug sensitivity score [13] | drug sensitivity score [14] | drug sensitivity score [15]
1 | CNc1ncc2cc(-c3cc(NC(=O)NCCC(C)(C)C)c(F)cc3C)c(C)nc2n1 | 101% | 97.9% | 99.1% | 71.1% | 35.7% | 90.9% | 106% | 106% | 75.5% | 24.6% | 111% | 98.9% | 78.2% | 12.5% | 8.3% | 104% | 104% | 97.9% | 82.3% | 17.6% | 96.6% | 103% | 95.1% | 59.2% | 22.3% | 1.09 µM | 1.34 µM | 0.189 µM | 1.67 µM | 0.915 µM | 7.2 | 7.7 | 18.9 | 7.4 | 9.1
2 | COc1cc(Br)c(S(=O)(=O)Nc2ccc(C(F)(F)F)c(O[C@@H]3CCN(C)C3)c2)cc1OC | 102% | 100% | 101% | 95.9% | 95.9% | 103% | 94.7% | 99.3% | 98.1% | 104% | 85.4% | 107% | 93.3% | 96.7% | 91.2% | 105% | 96.3% | 95% | 98.3% | 96.6% | 91.5% | 101% | 99% | 103% | 94.9% | > 10 µM | > 10 µM | > 10 µM | > 10 µM | > 10 µM | 0 | 0 | 0 | 0 | 0
3 | COc1cc2c(Nc3ccc(NC(=O)c4ccccc4)cc3)ncnc2cc1OCCCN1CCOCC1 | 99.6% | 96.8% | 106% | 102% | 108% | 95.2% | 95.5% | 96.9% | 79.4% | 99.6% | 102% | 107% | 96.4% | 108% | 109% | 105% | 98.3% | 101% | 103% | 102% | 99.7% | 101% | 101% | 97.3% | 108% | > 10 µM | > 10 µM | > 10 µM | > 10 µM | > 10 µM | 0 | 0 | 0 | 0 | 0
4 | COc1ncc(-c2ccc3c(Nc4cc(Oc5cc(F)cc(F)c5)cc(C(=O)O)c4)c(S(=O)(=O)NC4CC4)cnc3c2)c(OC)n1 | 103% | 100% | 85% | 92.2% | 97.5% | 95.3% | 107% | 87.9% | 96.3% | 102% | 97% | 107% | 96.8% | 101% | 85.6% | 104% | 104% | 98.8% | 93.2% | 99.8% | 101% | 101% | 99.9% | 104% | 101% | > 10 µM | > 10 µM | > 10 µM | > 10 µM | > 10 µM | 0 | 0 | 0.2 | 0 | 0
5 | CS(=O)(=O)Nc1ccc(Cc2noc(-c3ccc4[nH]cc(CCN)c4c3)n2)cc1 | 97.9% | 101% | 105% | 98.5% | 104% | 104% | 101% | 102% | 90.2% | 103% | 93.8% | 116% | 91.2% | 95.8% | 98% | 98.6% | 96.9% | 102% | 99.1% | 98.8% | 98.3% | 105% | 100% | 101% | 106% | > 10 µM | > 10 µM | > 10 µM | > 10 µM | > 10 µM | 0 | 0 | 0 | 0 | 0
6 | C[C@@H](Oc1ccc(Cl)cc1)c1ccnc2ncnn12 | 97.2% | 91.7% | 94% | 109% | 93% | 118% | 97.6% | 100% | 89.7% | 95% | 95% | 102% | 92.7% | 96.3% | 107% | 95.8% | 94.3% | 99.3% | 99.9% | 99.2% | 96.2% | 97.7% | 90.1% | 96.2% | 106% | > 10 µM | > 10 µM | > 10 µM | > 10 µM | > 10 µM | 0 | 0 | 0 | 0 | 0
